Legend:
[1] = test system: Varigated Fuchsia; test: Root growth of Varigated Fuchsia cuttings in hydroponic auxin solution; assay type: in vivo, Fuchsia hybrida; conditions: for Enhancement Ratio: Varigated Fuchsia (VF), R = (ISAx − H2O)/(IBA − H2O), average root growth per cutting; for root growth activity compared to IBA: versus 10^−7 M IBA
Experimental: (§1) This example illustrates the auxin effect of each indole-3-succinic acid enantiomer and indole-3-succinic acid racemate, and compares them to IBA and water. A detailed description of this root growth study follows.
(§2) Fresh solutions were used in each experiment. Weights of hormone salts were measured to ±0.01 mg on a Mettler H-16 single-pan mechanical balance (reproducibility=±0.03 mg). Using indole-3-succinic acid R and S enantiomers as the 2×NH4^+ salt, 1.40 mg, was dissolved in 95% ethanol (20 mL) and slowly diluted to 500 mL with deionized water to make a stock solution of 1.047×10^−5 molar concentration. Dilutions were then made in the following manner.
(§3) For the concentration study (S)-indole-3-succinic acid; 2NH4^+ (98% e/e, 1.41 mg), and IBA Na(1.13 mg) were used to make stock solution of 1.055×10^−5 and 1.005×10^−5 molar, respectively. Deionized water was also used as a control.
(§4) Five new-growth cuttings of two different varieties of Fuchsia hybrida (i.e., Varigated Fuchsia and Swingtime Fuchsia) were placed into the 50 mL solutions contained in orange plastic pill containers that were blackened with black electrician's tape. The solutions were placed in a fiberglass solar prism greenhouse (90% of UV light is filtered out of sunlight) in which the temperatures varied from 55° F. (night) to 100° F. (day). The solutions were topped with deionized water daily to the 50 mL mark to compensate for water […] and evaporation. Readings of the root growth were measured in total mm for the cuttings in a particular solution on days 7, 10, 14, 18, 22, 26, 30, and 34. These were recorded as the number of rootlets/total length (mm). […] Therefore, all data reflect the average mm root growth per survived cutting.
(§5) This example compares indole-3-succinic acid enantiomers and ISA racemate to IBA and IAA. More specifically, Table 1 illustrates the relative effectiveness (in promoting root growth) of different indole-3-succinic acid solutions compared to 10^−7 M indole-3-butyric acid (IBA) and a 10^−7 M […].
(§6) This example was conducted in the same manner as in Example 2 above.

[2] = test system: Swingtime Fuchsia; test: Root growth of Swingtime Fuchsia cuttings in hydroponic auxin solution; assay type: in vivo, Fuchsia hybrida; conditions: for Enhancement Ratio: Swingtime Fuchsia (SF), R = (ISAx − H2O)/(IBA − H2O), average root growth per cutting; for root growth activity compared to IBA: versus 10^−7 M IBA
Experimental: as §1, §2, §3, §4, §5, §6

[3] = test system: Fuchsia hybrida; test: Effectiveness of indole-3-succinic acid derivatives in root growth, procedure of Example 3; assay type: in vivo; conditions: 10^−7 M aqueous solution
Experimental: as §4
The process recited in Example 1 was followed to make the derivatives and they were each tested in accordance with the procedure in Example 3 in a 10^−7 M aqueous solution. The derivatives and their effectiveness compared to conventional auxins is reported below.

O=C(O)C[C@H](C(=O)O)c1c[nH]c2ccccc12 [(S)-ISA, (S)-indole-3-succinic acid]
Enhancement Ratio ([1]; 10^−7 M): 3.8 | Enhancement Ratio ([1]; 10^−8 M): 4.6 | potency compared to the other ISA enantiomer ([1]; Varigated Fuchsia, all concentrations of ISA, FIG. 5): more potent | Enhancement Ratio ([2]; 10^−7 M): 5.7 | Enhancement Ratio ([2]; 10^−8 M): 4.8

O=C(O)CC(C(=O)O)c1c[nH]c2ccc(Cl)cc12 (centres unmarked) [5-chloroindole-3-succinic acid]
Effectiveness compared to IAA [3]: 2× more effective than IAA

O=C(O)C[C@@H](C(=O)O)c1c[nH]c2ccccc12 [(R)-ISA, (R)-indole-3-succinic acid]
Enhancement Ratio ([1]; 10^−7 M): 0.7 | Enhancement Ratio ([1]; 10^−8 M): 4.4 | root growth activity compared to IBA ([1]; Varigated Fuchsia): nearly the same activity | Enhancement Ratio ([2]; 10^−7 M): 5.6 | Enhancement Ratio ([2]; 10^−8 M): 7.1 | potency compared to the other ISA enantiomer ([2]; Swingtime Fuchsia, 10^−8 M, FIG. 5): more potent

O=C(O)CC(C(=O)O)c1c[nH]c2ccccc12 (racemic) [Racemic ISA, indole-3-succinic acid]
melting point: 196 to 198 °C | Enhancement Ratio ([2]; 10^−7 M): 7.0 | root growth activity compared to IBA ([2]; Swingtime Fuchsia): significantly higher

O=C(O)CC(c1ccccc1)c1c[nH]c2ccccc12 (centres unmarked) [3′-indole-3-phenylpropanoic acid]
Effectiveness compared to IAA [3]: 2× as effective as IAA

O=C(O)Cc1c[nH]c2ccccc12 [IAA, indole-3-acetic acid, reference compound]
Enhancement Ratio ([1]; 10^−7 M): 0 | root growth activity compared to IBA ([1]; Varigated Fuchsia): substantially lower levels of activity | Enhancement Ratio ([2]; 10^−7 M): 0 | root growth activity compared to IBA ([2]; Swingtime Fuchsia): substantially lower levels of activity

O=C(O)CC(C(=O)O)c1c[nH]c2ccc(Br)cc12 (centres unmarked) [5-bromoindole-3-succinic acid]
Effectiveness compared to IAA [3]: same as IAA

O=C(O)CC(C(=O)O)c1c[nH]c2cccc(Cl)c12 (centres unmarked) [4-chloroindole-3-succinic acid]
Effectiveness compared to IAA [3]: 22× more effective than IAA

CC(CC(=O)O)c1c[nH]c2ccccc12 (centres unmarked) [3′-indole-3-methylpropanoic acid]
Effectiveness compared to IBA [3]: same as IBA

Reference: US6753297B2, “Use of indole-3-succinic acid as auxin” (priority 2001, dated 2004)
